Patent US4927817A, “Preventive and therapeutic agent against liver disorder” (Zeria Pharmaceutical Co., Ltd., priority 1986, dated 1990)
Entries after “also recorded” stand apart in the source; their conditions may differ.

What was measured:
[1] = acute toxicity test, oral; assay type: in vivo, female and male Wistar rats
From the text: In the acute toxicity test, female and male Wistar rats, each with body weight 150-200 g, were divided into the groups with 10 rats each, and 10 g/kg each of carnosine zinc salt was given orally.

[2] = tested on: liver disorder caused by carbon tetrachloride; assay: prevention of experimental liver disorder in rat caused by carbon tetrachloride: serum GOT and GPT; assay type: in vivo, male Wistar rats; settings: for GOT (serum) / GPT (serum): CCl4 0.4 ml/kg oral 1 h after last dose, blood at 24 h; for GOT (serum): CCl4 + CMC control 2115.9 ± 260.2; for GPT (serum): CCl4 + CMC control 2243.8 ± 333.0
Method: (§1) Carnosine zinc salt was suspended in 0.5% sodium carboxymethyl cellulose (CMC) solution to prepare 60 mg/ml and 20 mg/ml suspensions. This was given to rats orally every day for 8 days at the rate of 0.5 ml/100 g so that the dosage was to be 300 mg/kg and 100 mg/kg, respectively. To the control group, the same volume of 0.5% CMC was given.
(§2) To prepare the model animals with liver disorder caused by carbon tetrachloride, carbon tetrachloride mixed in olive oil to have a 10% (V/V) mixture was given orally at the rate of 4 ml/kg (0.4 ml/kg as carbon tetrachloride) one hour after the final administration of carnosine zinc salt or 0.5% CMC. The animals were anesthetized by intraperitoneal injection of pentobarbital at 24 hours after carbon tetrachloride was given, and blood was collected from carotid arteries. The blood was centrifuged at 3000 rpm for 15 minutes to fractionate serum, and GOT and GPT were determined (Reitman Frankel and Momose modification).
For the experiment, male Wistar rats were used. With 10 rats in each group, they were divided into three groups: the group given with carbon tetrachloride (CCl4) and 0.5% CMC only (CCl4 +CMC), the group given with carbon tetrachloride and 300 mg/kg or 100 mg/kg of carnosine zinc salt (CCl4 +carnosine zinc salt) and the group given with 0.5% CMC only (CMC).

hepatic cells = assay: histopathological examination of isolated liver (H-E staining) in rats given carbon tetrachloride; assay type: in vivo, male Wistar rats
Method: as §1, §2
From the isolated liver, the paraffined sections were prepared, stained by H-E staining and were examined by histopathological examination.
For the experiment, male Wistar rats were used. […]

[3] = tested on: hepatitis experimentally induced by carbon tetrachloride; assay: carnosine zinc salt given after liver disorder had actually occurred (carbon tetrachloride hepatitis); assay type: in vivo, model animals; settings: CCl4 hepatitis
[4] = 100 mg/kg oral daily for 8 days
[5] = 300 mg/kg oral daily for 8 days

For `NCCC(=O)[N-][C@@H](Cc1c[nH]cn1)C(=O)[O-].[Zn+2]` [carnosine zinc salt, L-carnosine zinc salt], the “death in acute toxicity test” value ([1]; 10 g/kg oral, observation for 7 days, female and male rats) was “no case of death”, the acute toxicity ([1]; oral) was “very weak toxicity; also recorded: extremely weak” and the “GOT (serum)” value [2, 4] was 2167.7 ± 777.5 KU. For the same compound, the “GPT (serum)” value [2, 4] was 1917.7 ± 748.6 KU, the “GPT and GOT in blood, statistical significance” value ([2]; 300 mg/kg administration group, risk rate of 1%) was “significantly decreased at risk rate of 1%” and the “GOT (serum)” value [2, 5] was 629.7 ± 121.2 KU. For the same compound, the “GPT (serum)” value [2, 5] was 427.7 ± 69.4 KU, the “increase of hepatic enzymes in blood” value ([2]; given before liver disorder occurs, CCl4 hepatitis) was “effectively prevented” and the “increase of GPT and GOT in blood” value ([2]; oral, depending upon the dosage, CCl4 rats) was “significant decline in the increase of GPT and GOT in blood; also recorded: suppresses increase of GPT and GOT in blood, depending upon the dosage”. For the same compound, the “prevention of experimental liver disorder caused by carbon tetrachloride” value ([2]; oral, rat) was “effect of carnosine zinc salt to prevent the experimental liver disorder caused by carbon tetrachloride”, the “necrosis of hepatic cells and fat formation” value (hepatic cells; group given carnosine zinc salt, CCl4 rats) was “suppression of necrosis of hepatic cells and fat formation” and the “degree of necrosis of hepatic cells” value (hepatic cells; improvement of liver disorder) was “reduction of the degree of necrosis of hepatic cells”. For the same compound, the “preventive effect when given after liver disorder had occurred” value [3] was “the same preventive effect was obtained”.
